{"source": "paper PMC12682947", "about": "“Identification of New KCNT1‐Epilepsy Drugs by In Silico, Cell, and Drosophila Modeling” (Annals of Neurology, 2025)", "assay": "Plasma pharmacokinetics and brain uptake of antrafenine in mice (LC-MS)", "assay_type": "in vivo, male C57BL/6 mice", "details": "male, C57BL/6, mouse; for AUC(0-inf): read-out: Plasma AUC0-inf; for clearance: read-out: Plasma CL; for Vd: read-out: Plasma VSS", "protocol": "Plasma pharmacokinetics and brain uptake of antrafenine was analyzed in male C57BL/6 mice. Antrafenine was administered intravenously at 1 mg/kg and 3 mg/kg into the tail vein and plasma was collected over a 24‐hour sampling period (n = 3 mice/time point). Following administration, the brain was harvested at 4 times over 24 hours and snap frozen in dry ice and subsequently stored frozen (−80°C) until analysis. The concentration of antrafenine was determined using liquid chromatography–mass spectrometry. The in vivo study was conducted using established procedures in accordance with the Australian Code of Practice for the Care and Use of Animals for Scientific Purposes, and the study protocols were reviewed and approved by the Monash Institute of Pharmaceutical Sciences Animal Ethics Committee. See Supporting Information for detailed methods and results. […]\nPlasma pharmacokinetics and brain uptake of antrafenine was analyzed in male C57BL/6 mice by the Monash University Centre for Drug Candidate Optimisation. Antrafenine was administered intravenously at 1 mg/kg and 3 mg/kg into the tail vein and plasma was collected over a 24 h sampling period (n=3 mice/time point). Following administration, brain was harvested at four times over 24 hours and snap frozen in dry ice and subsequently stored frozen (-80°C) until analysis. The concentration of antrafenine was determined using liquid chromatography–mass spectrometry (LC-MS).\n4 hrs post IV administration of 3 mg/kg Antrafenine was taken as a representative time to compare plasma and brain concentrations. At 4 hrs we determined a mean plasma concentration of 47.5 nM (+5.9 nM SD) and a mean brain concentration of 13.9 nM (+3 nM SD). […]\nPlasma pharmacokinetics and brain uptake of antrafenine\nThe systemic exposure of antrafenine was studied in non-fasted male C57BL/6 mice weighing 19.8 – 24.6 g. Mice had access to food and water ad libitum throughout the pre- and post-dose period. Antrafenine hydrochloride Mw 588.554 (Lot#10-KSS-51-2) was obtained from Toronto Research Chemicals/LGC Standards, Canada, and was dissolved in vehicle; 5% (v/v) DMSO, 25% (v/v) 40% (w/v) Trappsol in 0.9% (w/v) saline, 70% (v/v) 40 mM citrate buffered saline at pH 3.5 at concentrations of 0.5 mg/mL and 1.5 mg/mL.\nOn the day of dosing, each formulation was prepared by dissolving solid antrafenine in DMSO using vortexing and sonication prior to addition of 40% (w/v) Trappsol in 0.9% (w/v) saline followed by 40 mM citrate-buffered saline at pH 3.5. Each sample was vortexed to create a colorless / light yellow solution and was filtered through a 0.22 µm syringe filter prior to dosing.\nAdministration of antrafenine was performed by a single bolus IV injection into the tail vein of C57BL/6 male mice using a 1ml syringe with a 25G x 1” needle at a volume of 2 mL/kg. Each […]\nformulation was dosed to mice by bolus injection into the lateral tail vein (2 mL/kg) and blood samples were collected at 1, 2, 5, 15 and 30 min; 1, 2, 4, 7.5 and 24 h post-dose (n=3 mice per time point for each formulation). A maximum of three blood samples were obtained from each mouse, with plasma samples being taken via submandibular bleed (approximately 120 μL).\nBlood was collected into polypropylene Eppendorf tubes containing heparin as anticoagulant and stabilization cocktail (Complete® (containing a protease inhibitor cocktail and EDTA) and potassium fluoride) to minimize the potential for ex vivo compound degradation in blood/plasma samples. Once collected, blood samples were centrifuged immediately, supernatant plasma was removed, snap frozen in dry ice and stored at -80°C until analysis by LC-MS. In addition, at the 15 min, 1, 4 and 24 h post-dose time points, the whole brain was rapidly removed from the carcass soon after the blood collection. The whole brains were blotted to remove excess blood, placed into pre-weighed polypropylene vials and weighed. The brains were snap frozen in dry […]", "key": {"[1]": {"details": "plasma, iv, 1 mg/kg, IV 1 mg/kg, individual mice, read-out: Plasma Concentration Individual"}, "[2]": {"details": "plasma, iv, 1 mg/kg, IV 1 mg/kg, n = 3, read-out: Plasma Concentration Mean ± SD"}, "[3]": {"details": "plasma, iv, 3 mg/kg, IV 3 mg/kg, individual mice, read-out: Plasma Concentration Individual"}, "[4]": {"details": "plasma, iv, 3 mg/kg, IV 3 mg/kg, n = 3, read-out: Plasma Concentration Mean ± SD"}, "[5]": {"details": "plasma, IV administration at 1mg/kg"}, "[6]": {"details": "plasma, IV administration at 3mg/kg"}}, "note": "Where two headings read alike, the source gives them in different places.", "data": [{"compound": "O=C(OCCN1CCN(c2cccc(C(F)(F)F)c2)CC1)c1ccccc1Nc1ccnc2cc(C(F)(F)F)ccc12", "note": "[antrafenine]", "values": [{"measurement": "concentration at 0.25 h", "setting": "brain, iv, 3 mg/kg, IV 3 mg/kg, 0.25 h, individual mice, read-out: Brain Parenchyma Concentration Individual", "value": 31.1, "unit": "nM"}, {"measurement": "Kp at 0.25 h", "setting": "brain, iv, 3 mg/kg, IV 3 mg/kg, 0.25 h, n = 3, read-out: B:P ratio Mean ± SD", "value": 0.042}, {"measurement": "concentration at 0.25 h", "setting": "brain, iv, 3 mg/kg, IV 3 mg/kg, 0.25 h, n = 3, read-out: Brain Parenchyma Concentration Mean ± SD", "value": 29.5, "unit": "nM"}, {"measurement": "Kp at 1 h", "setting": "brain, iv, 3 mg/kg, IV 3 mg/kg, individual mice, read-out: B:P ratio Individual", "value": 0.14}, {"measurement": "Kp at 1 h", "setting": "brain, iv, 3 mg/kg, IV 3 mg/kg, n = 3, read-out: B:P ratio Mean ± SD", "value": 0.11}, {"measurement": "concentration at 1 h", "setting": "brain, iv, 3 mg/kg, IV 3 mg/kg, n = 3, read-out: Brain Parenchyma Concentration Mean ± SD", "value": 31.4, "unit": "nM"}, {"measurement": "Kp at 4 h", "setting": "brain, iv, 3 mg/kg, IV 3 mg/kg, 4 h, individual mice, read-out: B:P ratio Individual", "value": 0.32}, {"measurement": "Kp at 4 h", "setting": "brain, iv, 3 mg/kg, IV 3 mg/kg, 4 h, n = 3, read-out: B:P ratio Mean ± SD", "value": 0.29}, {"measurement": "Kp at 4 h", "setting": "brain, iv, 3 mg/kg, IV 3 mg/kg, 4 hours after administration, read-out: concentration in the brain as percentage of that present in plasma", "value": "~0.3"}, {"measurement": "concentration at 4 h", "setting": "brain, iv, 3 mg/kg, IV 3 mg/kg, 4 hours after administration, read-out: mean brain concentration", "value": 13.9, "unit": "nM"}, {"measurement": "concentration at 0.25 h", "setting": "plasma, iv, 1 mg/kg, IV 1 mg/kg, 0.25 h, individual mice, read-out: Plasma Concentration Individual", "value": 313, "unit": "nM"}, {"measurement": "concentration at 0.25 h", "setting": "plasma, iv, 1 mg/kg, IV 1 mg/kg, 0.25 h, n = 3, read-out: Plasma Concentration Mean ± SD", "value": 297, "unit": "nM"}, {"measurement": "concentration at 1 h", "setting": "[1]", "value": 122, "unit": "nM"}, {"measurement": "concentration at 1 h", "setting": "[2]", "value": 113, "unit": "nM"}, {"measurement": "concentration at 4 h", "setting": "plasma, iv, 1 mg/kg, IV 1 mg/kg, 4 h, individual mice, read-out: Plasma Concentration Individual", "value": 12.5, "unit": "nM"}, {"measurement": "concentration at 4 h", "setting": "plasma, iv, 1 mg/kg, IV 1 mg/kg, 4 h, n = 3, read-out: Plasma Concentration Mean ± SD", "value": 13.1, "unit": "nM"}, {"measurement": "concentration at 24 h", "setting": "[1]", "value": 2, "unit": "nM"}, {"measurement": "concentration at 24 h", "setting": "[2]", "value": 1.8, "unit": "nM"}, {"measurement": "half-life", "setting": "plasma, iv, 1 mg/kg, plasma, IV administration at 1mg/kg, read-out: Apparent t1/2 (converted)", "value": 438, "unit": "min"}, {"measurement": "concentration at 0.25 h", "setting": "plasma, iv, 3 mg/kg, IV 3 mg/kg, 0.25 h, individual mice, read-out: Plasma Concentration Individual", "value": 738, "unit": "nM"}, {"measurement": "concentration at 0.25 h", "setting": "plasma, iv, 3 mg/kg, IV 3 mg/kg, 0.25 h, n = 3, read-out: Plasma Concentration Mean ± SD", "value": 697, "unit": "nM"}, {"measurement": "concentration at 1 h", "setting": "[3]", "value": 282, "unit": "nM"}, {"measurement": "concentration at 1 h", "setting": "[4]", "value": 280, "unit": "nM"}, {"measurement": "concentration at 4 h", "setting": "plasma, iv, 3 mg/kg, IV 3 mg/kg, 4 h, individual mice, read-out: Plasma Concentration Individual", "value": 53, "unit": "nM"}, {"measurement": "concentration at 4 h", "setting": "plasma, iv, 3 mg/kg, IV 3 mg/kg, 4 h, n = 3, read-out: Plasma Concentration Mean ± SD", "value": 47.5, "unit": "nM"}, {"measurement": "concentration at 4 h", "setting": "plasma, iv, 3 mg/kg, IV 3 mg/kg, 4 hours after administration, read-out: mean plasma concentration", "value": 47.5, "unit": "nM"}, {"measurement": "concentration at 24 h", "setting": "[3]", "value": 5.7, "unit": "nM"}, {"measurement": "concentration at 24 h", "setting": "[4]", "value": 6.5, "unit": "nM"}, {"measurement": "half-life", "setting": "plasma, iv, 3 mg/kg, plasma, IV administration at 3mg/kg, read-out: Apparent t1/2 (converted)", "value": 444, "unit": "min"}, {"measurement": "half-life", "setting": "plasma, iv, 3 mg/kg, plasma, IV at 1 and 3 mg/kg, each profile, read-out: apparent terminal half-life (converted)", "value": "~420", "unit": "min"}, {"measurement": "AUC(0-inf)", "setting": "[5]", "value": 1.29, "unit": "µM·h"}, {"measurement": "clearance", "setting": "[5]", "value": 22, "unit": "mL/min/kg"}, {"measurement": "Vd", "setting": "[5]", "value": 2.3, "unit": "L/kg"}, {"measurement": "AUC(0-inf)", "setting": "[6]", "value": 3.14, "unit": "µM·h"}, {"measurement": "clearance", "setting": "[6]", "value": 27.1, "unit": "mL/min/kg"}, {"measurement": "Vd", "setting": "[6]", "value": 3.9, "unit": "L/kg"}]}]}
